Results: patent US12509460B2 (Skyhawk Therapeutics, Inc., priority 2019, dated 2025)
Like-named read-outs stand apart in the source and are kept apart here.

Experiments:
MDR1 (P-gp) = assay: in vitro; details: dog, MDCK-MDR1, pH 7.4
MDR1 = assay: in vitro; details: dog, MDCK-MDR1, pH 7.4
[1] = system: MDR1-MDCK cell monolayers; details: dog, MDCK-MDR1, 120 min, 5 μM, pH 7.4
[2] = system: mHTT protein in GM04724 (CAG 70/20) Huntington's disease patient lymphoblast cells; assay: mHTT protein assay, 2B7-MW1 assay via Mesoscale Discovery (MSD); format: cell-based, human
How it was run: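 Signal from the 2B7-MW1 antibody pair on MSD, rising with polyQ length and smaller HTT fragments, measured mHTT after 48 h compound exposure (0.6 nM–10 μM) in GM04724 cells. A parallel replicate plate gave CellTiter Glo viability.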

[3] = system: SMN protein in spinal muscular atrophy (SMA) patient fibroblasts (GM03813, Coriell); assay: SMN protein assay, Mesoscale Discovery (MSD); format: cell-based, human; details: for EC50: read-out: SMN2 protein EC50
How it was run: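 Absolute SMN levels were quantified by MSD against an SMN protein standard curve (1 μg/ml to 19.5 pg/ml) run on each plate. Samples were lysates of GM03813 patient fibroblasts (7000 cells/well) treated 48 hours with compound doses from 2.5 μM down to 0.6 nM.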

[4] = Quantitative splicing assay (HTT), qPCR; format: cell-based, human; details: Homo sapiens; GM04724 lymphoblasts, 24 h, qPCR; read-out: HTT Splicing: E49-50 EC50
How it was run: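 TaqMan qPCR on cell-lysate cDNA quantifies cryptic-exon inclusion from HTT intron 49. Lymphoblasts plated at 50,000 cells/well had received compound for 24 h, 0.15 nM-2.5 uM range, 0.1% DMSO.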

[5] = system: SMN FL and SMN Δ7 in spinal muscular atrophy (SMA) patient fibroblasts (GM03813, Coriell); assay: Quantitative splicing assay (SMN), qPCR; format: cell-based, human; details: Homo sapiens, Fibroblast; SMA patient fibroblasts GM03813, 24 h, qPCR; read-out: SMN2 Splicing FL EC50
Method: Spinal muscular atrophy (SMA) patient fibroblasts (GM03813, Coriell) are plated in 96-well plates at 50,000 cells/well. […] Treated cells are lysed and cDNA synthesized using the Fast Advanced Cells-to-Ct kit (Thermofisher A35378) according to the manufacturer's instructions. 2 μL of each cDNA are used in qPCR reactions. […] Reactions are run in a Quant Studio 6 qPCR instrument with default settings.

[6] = GM04724 Huntington's disease patient lymphoblasts
[7] = SMA patient fibroblasts GM03813, 48 hours, MSD
[8] = GM04724 (CAG 70/20) Huntington's disease patient lymphoblasts
[9] = SMA patient fibroblasts (GM03813), 48 hours

Structure (SMILES) | Papp A→B at 120 min, 5 μM (MDR1 (P-gp)) [×10⁻⁶ cm/s] | Papp B→A at 120 min, 5 μM (MDR1 (P-gp)) [×10⁻⁶ cm/s] | efflux ratio at 120 min, 5 μM (MDR1) | MDCK-MDR1: % Recov A-B [1] [%] | MDCK-MDR1: % Recov B-A [1] [%] | EC50 [2, 6] [nM] | SMN2 protein EC50 [3, 7] | EC50 [4] [nM] | EC50 [3, 7] [nM] | EC50 [5] [nM] | mHTT protein EC50 [2, 6] | mHTT protein EC50 [2, 8] | EC50 [3, 9] [nM] | SMN2 protein EC50 [3, 9] | EC50 [2, 8] [nM]
CN(c1ccc(-c2cc(C#N)ccc2O)nn1)[C@H]1C[C@@H]2CC[C@@H](N2)[C@H]1F (single isomer, unassigned) [Compound 70B] | 3.84 | 58.1 | 15 | 95 | 100 | 101 to 500 | E (501 ≤ E ≤ 10.000) | 10 to 501 |  |  |  |  |  |  | 
CNC(=O)c1cc(O)c(-c2ccc(N(C)[C@@H]3C[C@H]4CC[C@H](N4)[C@@H]3F)nn2)cc1F [Compound 47A, 2-fluoro-4-(6-(((1S,2S,3R,5R)-2-fluoro-8-azabicyclo[3.2.1]octan-3-yl)(methyl)amino)pyridazin-3-yl)-5-hydroxy-N-methylbenzamide] | 1.45 | 49.3 | 34 | 98 | 108 | 101 to 500 |  |  | 101 to 500 | 501 to 10000 |  |  |  |  | 
O=C(c1cc2cc(O)c(-c3ccc(N(C4CC4)[C@@H]4C[C@H]5CC[C@H](N5)[C@@H]4F)nn3)cc2o1)N1CCC1 [Compound 57A, azetidin-1-yl(6-(6-(cyclopropyl((1S,2S,3R,5R)-2-fluoro-8-azabicyclo[3.2.1]octan-3-yl)amino)pyridazin-3-yl)-5-hydroxybenzofuran-2-yl)methanone] | 0.78 | 63.2 | 80 | 89 | 104 |  | E (501 ≤ E ≤ 10.000) |  |  |  | E (501 ≤ E ≤ 10.000) |  |  |  | 
CN(c1ccc(-c2cc3ncn(CC(F)(F)F)c(=O)c3cc2O)nn1)[C@H]1C[C@@H]2CC(F)(F)[C@H](C1)N2 [Compound 59B, 7-(6-(((1R,3S,5S)-6,6-difluoro-8-azabicyclo[3.2.1]octan-3-yl)(methyl)amino)pyridazin-3-yl)-6-hydroxy-3-(2,2,2-trifluoroethyl)quinazolin-4(3H)-one] | 2.97 | 84.2 | 28 | 107 | 101 |  | E (501 ≤ E ≤ 10.000) |  |  |  | E (501 ≤ E ≤ 10.000) |  |  |  | 
CN(c1ccc(-c2cc(C#N)c(F)cc2O)nn1)[C@@H]1C[C@H]2CC[C@H](N2)[C@@H]1F [Compound 72A, 2-fluoro-5-(6-(((1S,2S,3R,5R)-2-fluoro-8-azabicyclo[3.2.1]octan-3-yl)(methyl)amino)pyridazin-3-yl)-4-hydroxybenzonitrile] | 11.6 | 39.9 | 3 | 88 | 77 |  | E (501 ≤ E ≤ 10.000) |  |  |  | E (501 ≤ E ≤ 10.000) |  |  |  | 
CN(C)C(=O)c1cc2cc(O)c(-c3ccc(N(C4CC4)[C@@H]4C[C@H]5CC[C@H](N5)[C@@H]4F)nn3)cc2o1 [Compound 86A, 6-(6-(cyclopropyl((1S,2S,3R,5R)-2-fluoro-8-azabicyclo[3.2.1]octan-3-yl)amino)pyridazin-3-yl)-5-hydroxy-N,N-dimethylbenzofuran-2-carboxamide] | 1.05 | 62.5 | 60 | 93 | 90 |  | E (501 ≤ E ≤ 10.000) |  |  |  | E (501 ≤ E ≤ 10.000) |  |  |  | 
CN(c1ccc(-c2cc3cnccc3cc2O)nn1)[C@@H]1C[C@H]2CC[C@@H]([C@@H]1F)N2C [Compound 93A, 7-(6-(((1S,2S,3R,5R)-2-fluoro-8-methyl-8-azabicyclo[3.2.1]octan-3-yl)(methyl)amino)pyridazin-3-yl)isoquinolin-6-ol] | 5.27 | 17.9 | 3 | 50 | 70 |  |  |  | 101 to 500 |  | E (501 ≤ E ≤ 10.000) |  |  |  | 
Cc1cc(=O)c2cc(O)c(-c3ccc(N(C)[C@@H]4C[C@H]5CC[C@@H]([C@@H]4F)N5C)nn3)cc2o1 [Compound 99A, 7-(6-(((1S,2S,3R,5R)-2-fluoro-8-methyl-8-azabicyclo[3.2.1]octan-3-yl)(methyl)amino)pyridazin-3-yl)-6-hydroxy-2-methyl-4H-chromen-4-one] | 2 | 36.3 | 18 | 114 | 91 |  |  |  |  |  |  | E (501 ≤ E ≤ 10.000) | 101 to 500 |  | 
CN(c1ccc(-c2cc3c(=O)n(C)cnc3cc2O)nn1)[C@@H]1C[C@H]2CC[C@@H]([C@@H]1F)N2C [Compound 102A, 6-(6-(((1S,2S,3R,5R)-2-fluoro-8-methyl-8-azabicyclo[3.2.1]octan-3-yl)(methyl)amino)pyridazin-3-yl)-7-hydroxy-3-methylquinazolin-4(3H)-one] | 1.43 | 58.1 | 41 | 88 | 92 |  |  |  |  |  |  | E (501 ≤ E ≤ 10.000) | 101 to 500 |  | 
CN(c1ccc(-c2cc(F)c(-n3ccnn3)cc2O)nn1)[C@@H]1C[C@H]2CC[C@@H]([C@@H]1F)N2C [Compound 103A, 4-fluoro-2-(6-(((1S,2S,3R,5R)-2-fluoro-8-methyl-8-azabicyclo[3.2.1]octan-3-yl)(methyl)amino)pyridazin-3-yl)-5-(1H-1,2,3-triazol-1-yl)phenol] | 13.9 | 60.3 | 4 | 86 | 91 |  |  |  |  |  |  | E (501 ≤ E ≤ 10.000) |  | E (501 ≤ E ≤ 10.000) | 
Cc1nc2cc(-c3ccc(N(C)[C@@H]4C[C@H]5CC[C@@H]([C@@H]4F)N5C)nn3)c(O)cc2c(=O)n1C [Compound 105A, 7-(6-(((1S,2S,3R,5R)-2-fluoro-8-methyl-8-azabicyclo[3.2.1]octan-3-yl)(methyl)amino)pyridazin-3-yl)-6-hydroxy-2,3-dimethylquinazolin-4(3H)-one] | 0.58 | 56.9 | 99 | 105 | 115 |  |  |  |  |  |  |  | 101 to 500 |  | 101 to 500
CN(c1ccc(-c2cc3oc(C(=O)N4CCC4)cc3cc2O)nn1)[C@@H]1C[C@H]2CC[C@@H]([C@@H]1F)N2C [Compound 107A, azetidin-1-yl(6-(6-(((1S,2S,3R,5R)-2-fluoro-8-methyl-8-azabicyclo[3.2.1]octan-3-yl)(methyl)amino)pyridazin-3-yl)-5-hydroxybenzofuran-2-yl)methanone] | 1.27 | 55.1 | 43 | 80 | 82 |  |  |  |  |  |  | E (501 ≤ E ≤ 10.000) |  | E (501 ≤ E ≤ 10.000) | 
